ChEMBL document CHEMBL4402520, “Synthetic routes and structure-activity relationships (SAR) of anti-HIV agents: A key review” (Eur J Med Chem, 2019)
Converted amounts (≈) assume the structure as drawn. Blank lines part the entries; values can stand above or below the compound they belong to.

Columns and labels:
[1] = system: Human immunodeficiency virus 1; test: Antiviral activity against wild type HIV1 3B infected in human TZM-bl cells; type: functional, organism-based; conditions: Human immunodeficiency virus 1, 3B
TZM [2] = test: Cytotoxicity against human TZM-bl cells; type: functional
[3] = system: Human immunodeficiency virus 1; test: Antiviral activity against HIV1 3B after 48 hrs […]; type: functional, organism-based; conditions: Human immunodeficiency virus 1, 3B
[4] = system: Human immunodeficiency virus 2; test: Antiviral activity against HIV2 ROD after 48 hrs […]; type: functional, organism-based; conditions: Human immunodeficiency virus 2, ROD
[5] = system: Human immunodeficiency virus 2; test: Antiviral activity against HIV2 ROD; type: functional, organism-based; conditions: Human immunodeficiency virus 2, ROD
[6] = system: Human immunodeficiency virus 1; test: Antiviral activity against HIV1 3B; type: functional, organism-based; conditions: Human immunodeficiency virus 1, 3B
[7] = Inhibition of HIV reverse transcriptase; set-up: species or system Human immunodeficiency virus
C8166 = test: Cytotoxicity against human C8166 cells assessed as reduction in cell viability; type: functional, cell-based
[8] = target: T1, Human immunodeficiency virus type 1 reverse transcriptase (Human immunodeficiency virus 1, UniProt Q72547); test: Inhibition of HIV-1 reverse transcriptase after 1 hr by ELISA
[9] = Selectivity index, ratio of CC50 for human C8166 cells to EC50 for HIV1 3B infected in human C8166 cells; type: toxicity, cell-based; conditions: read-out: Selectivity Index
[10] = system: Human immunodeficiency virus 1; test: Antiviral activity against HIV1; type: functional, organism-based
[11] = system: Human immunodeficiency virus 1; test: Antiviral activity against HIV1 3B infected in human C8166 cells; type: functional, organism-based; conditions: Human immunodeficiency virus 1, 3B, C8166
[12] = Selectivity index, ratio of CC50 for human TZM-bl cells to EC50 for wild type HIV1 3B infected in human TZM-bl cells; type: toxicity, cell-based; conditions: read-out: Selectivity Index
[13] = system: Human immunodeficiency virus 1; test: Antiviral activity against wild type HIV1 3B infected in human TZM-bl cells after 4 days by ELISA; type: functional, organism-based; conditions: Human immunodeficiency virus 1, 3B, 96 h
[14] = system: Human immunodeficiency virus 1; test: Antiviral activity against wild type HIV1 3B infected in human MT4 cells using [3H]dGTP by radio-labelled binding assay; type: functional, organism-based; conditions: Human immunodeficiency virus 1, 3B
[15] = target: T1, Human immunodeficiency virus type 1 reverse transcriptase; test: Inhibition of wild type HIV-1 reverse transcriptase
TZM [16] = test: Cytotoxicity against human TZM-bl cells assessed as reduction in cell viability after 4 hrs by MTT assay; type: functional
[17] = system: Human immunodeficiency virus 1; test: Antiviral activity against wild type HIV1 3B infected in human TZM-bl cells assessed as viral infection at 50 ug/ml after 1 hr relative to control; type: functional; conditions: Human immunodeficiency virus 1, 3B
HeLa = test: Cytotoxicity against human HeLa cells expressing CD4-LTR-beta-gal assessed as reduction in cell viability; type: functional
[18] = system: Human immunodeficiency virus; test: Antiviral activity against HIV infected in human HeLa cells expressing CD4-LTR-beta-gal; type: functional, organism-based; conditions: Human immunodeficiency virus 1, HeLa
[19] = target: T2, Human immunodeficiency virus type 2 integrase (Human immunodeficiency virus 2, UniProt P89582); test: Inhibition of wild type HIV-2 ROD9 integrase
T2 sequence (P89582 whole entry): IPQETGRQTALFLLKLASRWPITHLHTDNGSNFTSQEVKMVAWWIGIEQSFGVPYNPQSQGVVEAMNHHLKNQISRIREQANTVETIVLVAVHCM

[20] = Inhibition of HIV-2 ROD9 integrase T97A mutant; set-up: species or system Human immunodeficiency virus 2
[21] = Inhibition of HIV-2 ROD9 integrase N155H mutant; set-up: species or system Human immunodeficiency virus 2
[22] = Inhibition of HIV-2 ROD9 integrase G140S mutant; set-up: species or system Human immunodeficiency virus 2
[23] = Inhibition of HIV-2 ROD9 integrase T97A/Y143C double mutant; set-up: species or system Human immunodeficiency virus 2
[24] = Inhibition of HIV-2 ROD9 integrase E92Q/N155H double mutant; set-up: species or system Human immunodeficiency virus 2
[25] = Inhibition of HIV-2 ROD9 integrase Q148H mutant; set-up: species or system Human immunodeficiency virus 2
[26] = Inhibition of HIV-2 ROD9 integrase Y143C mutant; set-up: species or system Human immunodeficiency virus 2
[27] = Inhibition of HIV-2 ROD9 integrase G140S/Q148R double mutant; set-up: species or system Human immunodeficiency virus 2
[28] = Inhibition of HIV-2 ROD9 integrase E92Q/Y143C double mutant; set-up: species or system Human immunodeficiency virus 2
[29] = Inhibition of HIV-2 ROD9 integrase T97A/N155H double mutant; set-up: species or system Human immunodeficiency virus 2
[30] = Inhibition of HIV-2 ROD9 integrase Q148R mutant; set-up: species or system Human immunodeficiency virus 2
[31] = Inhibition of HIV-2 ROD9 integrase E92Q mutant; set-up: species or system Human immunodeficiency virus 2

SMILES: O=C(CSC1[Se]N=NC1c1ccc(Cl)c(Cl)c1)Nc1ccccc1F (stereo not given)
EC50 [3]: > 27000 nM | EC50 [4]: > 27000 nM

SMILES: Cn1cc(C(=O)O)c(=O)c2ccc(N3CCN(c4cccc(C(F)(F)F)c4)CC3)nc21
EC50 [5]: > 0.41 µg/mL | EC50 [6]: > 0.41 µg/mL

SMILES: O=C(CN(Cc1ccccc1)c1ccc(Cl)cc1)N1CCN(c2cccc(Cl)c2Cl)CC1
IC50 [7]: 12300 nM

SMILES: COc1ccc2c(c1)CCCN2CCC(=O)N1CCN(c2cccc(Cl)c2)CC1
IC50 (C8166): 97.5 µg/mL (≈ 236 µM) | IC50 [8]: 18600 nM | selectivity ratio [9]: 5.3

SMILES: O=c1[nH]c(=O)n([C@H]2C[C@H](O)[C@@H](CO)O2)cc1CCCOc1ccc(OCc2ccccc2)cc1
IC50 [10]: 2180 nM

SMILES: O=C(CSC1[Se]N=NC1c1ccc(Cl)c(Cl)c1)Nc1ccccc1Cl (stereo not given)
EC50 [3]: > 23400 nM | EC50 [4]: > 23400 nM

SMILES: CC(C)c1c(CC2CCCCC2)nc(SCc2ccccc2)[nH]c1=O
EC50 [11]: 0.025 nM | selectivity ratio [9]: 691 to 6.32e+06

SMILES: Cc1cccc(N2C(=O)CSC2c2c(Cl)cccc2Cl)n1 (stereo not given)
IC50 [14]: 44 nM

SMILES: O=c1[nH]c(=O)n([C@H]2C[C@H](O)[C@@H](CO)O2)cc1C#CCOc1ccc(OCc2ccccc2)cc1
IC50 [10]: 6680 nM

SMILES: COc1ccc2c(c1)CCCN2CCC(=O)N1CCN(c2ccccc2)CC1
IC50 (C8166): 83.2 µg/mL (≈ 219 µM) | IC50 [8]: 24200 nM | selectivity ratio [9]: 5.9

SMILES: O=C(N[C@H]1C(=O)Nc2ccccc2C2CCCN21)OCc1ccccc1 (stereo not given in full)
EC50 [10]: 860 nM

SMILES: NC1=CNC(=O)/C1=N/Nc1ccc([N+](=O)[O-])cc1
Activity (TZM [16]): 80% | inhibition at 50 µg/mL [17]: 91%

SMILES: NC1=CNC(=O)/C1=N/Nc1cccc(Cl)c1
Activity (TZM [16]): 52% | inhibition at 50 µg/mL [17]: 93%

SMILES: O=C(O)/C(O)=C/C(=O)c1cn(Cc2ccc(F)cc2)c2cc(N3CCN(CCCCl)CC3)ccc2c1=O
CC50 (HeLa): > 50000 nM | IC50 [18]: 50 nM

SMILES: C[C@@H]1CCO[C@H]2Cn3cc(C(=O)NCc4ccc(F)cc4F)c(=O)c(O)c3C(=O)N12 [DOLUTEGRAVIR]
EC50 [19]: 2.3 nM | EC50 [20]: 3.2 nM | EC50 [21]: 5 nM | EC50 [22]: 3.2 nM | EC50 [23]: > 10000 nM | EC50 [24]: 25 nM | EC50 [25]: 3.5 nM | EC50 [26]: 7.7 nM | EC50 [27]: 108 nM | EC50 [28]: 15 nM | EC50 [29]: 27 nM | EC50 [30]: 5.7 nM | EC50 [31]: 7.7 nM

More lines, main results first:

EC50 [1]: 45 nM
SMILES: COC(=O)C(N)(c1c[nH]c2ccc(F)cc12)C(F)(F)F (stereo not given)
CC50 (TZM [2]): 49300 nM

EC50 [13]: 126000 nM
SMILES: CCC1OC(=O)c2ccccc2C1(Cl)c1ccc(F)cc1 (stereo not given)
selectivity ratio [12]: 2.1 | CC50 (TZM [2]): 263000 nM

IC50 [14]: 82 nM
SMILES: Cc1cccc(N2C(=O)CSC2c2c(F)cccc2F)n1 (stereo not given)

IC50 [7]: 14200 nM
SMILES: O=C(CN(Cc1ccccc1)c1ccc(Cl)cc1)N1CCN(c2ccc([N+](=O)[O-])cc2)CC1

EC50 [3]: 5420 nM | EC50 [4]: > 26300 nM
SMILES: Cc1ccc(NC(=O)CSC2[Se]N=NC2c2ccc(Cl)c(Cl)c2)c([N+](=O)[O-])c1 (stereo not given)

EC50 [10]: 14000 nM
SMILES: Cn1ccc2c1S(=O)(=O)c1ccccc1NC2=O

EC50 [15]: 1600 nM
SMILES: COC(=O)CCCC=C(c1cc(Cl)c(OC)c(C(=O)SC)c1)c1cc(Cl)c(OC)c(C(=O)SC)c1

IC50 [7]: 16300 nM
SMILES: COc1ccccc1N1CCN(C(=O)CN(Cc2ccccc2)c2ccc(Cl)cc2)CC1

IC50 [8]: 12500 nM
SMILES: COc1ccc2c(c1)CCCN2CCC(=O)N1CCN(c2ccccc2C)CC1
IC50 (C8166): 114 µg/mL (≈ 291 µM) | selectivity ratio [9]: 24.2

EC50 [5]: 0.02 µg/mL (≈ 0.0475 µM) | EC50 [6]: 0.03 µg/mL (≈ 0.0712 µM)
SMILES: Cn1cc(C(=O)O)c(=O)c2ccc(N3CCN(c4nc5ccccc5s4)CC3)nc21
